Values joined by “and” are separate entries in the source; they are usually repeats but may differ in a detail not shown here. Identical values can stand only once.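 Five compound concentrations were applied to cells in 96-well plates for 48 hours; endpoints were derived by simple linear interpolation of the resulting dose-response curve. The concentration for 50% growth inhibition is given as GI50. TGI denotes the concentration required for complete inhibition of growth.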
Experiments:
Assay in all cases: inhibition of tumour cell growth, NCI panel, 48 h
[1] = system: UACC-62 melanoma
[2] = system: 786-0 renal
[3] = system: CAKI-1 renal
[4] = system: EKVX NSCLC
[5] = system: SNB-75 CNS
[6] = system: HOP-62 NSCLC
[7] = system: UO-31 renal
[8] = system: BT-549 breast
[9] = system: TK-10 renal
[10] = system: NCI-H460 lung

Row | Compound | TGI [1] | TGI [2] | TGI [3] | TGI [4] | TGI [5] | TGI [6] | TGI [7] | TGI [8] | TGI [9] | GI50 [10] | TGI [10] | GI50 [1] | GI50 [3] | GI50 [4] | GI50 [5] | GI50 [6] | GI50 [7] | GI50 [9] | GI50 [2] | GI50 [8]
1 | Clc1ccccc1NN(Cc1ccccn1)c1ccccc1Cl | 43.8 µM | 31.6 µM | 91.9 µM | 52.5 µM | 41.7 µM | 34.3 µM | 34.8 µM | 56 µM |  |  |  |  |  |  |  |  |  |  |  | 
2 | CSc1ccc(/C=C2\CNC/C(=C\c3ccc(SC)cc3)C2=O)cc1 | > 214 µM and 150 µg/mL | 153 µM | 150 µg/mL | > 371 µM and 150 µg/mL | 86.4 µM and 47.5 µM and 27.9 µg/mL | 59.3 µM and 131 µg/mL | > 371 µM and 150 µg/mL | > 371 µM | > 165 µM | 114 µg/mL | > 371 µM and 150 µg/mL | 93.5 µg/mL | 90.3 µg/mL | 150 µg/mL | 23.2 µM and 7.91 µg/mL | 14 µM and 50.2 µg/mL | 150 µg/mL |  |  | 
3 | CCN(c1ccc(CO)c(Cl)c1)C(C)c1ccc(F)cc1 (stereo not given) | 16.9 µM | 30.4 µM | 21.7 µM |  | 26.8 µM | 30.2 µM | 29.1 µM | 29.6 µM | 6.11 µM | 7.88 µM | 23.7 µM | 3.79 µM | 8.46 µM |  | 13 µM | 16.2 µM | 15.3 µM | 1.12 µM | 16.4 µM | 15.5 µM
4 | NS(=O)(=O)c1ccc(N2Cc3cc(Cl)ccc3OC3=C2C(=O)N(CC2CCCCC2)C3=O)cc1 | 1.61 µM | 0.482 µM | 2.55 µM | 2.91 µM | 2.13 µM | 3.39 µM | 2.32 µM | 1.97 µM | 2.48 µM | 1.72 µM | 4.04 µM | 0.377 µM | 1.24 µM | 1.47 µM | 0.784 µM | 1.73 µM | 1.1 µM | 1.22 µM | 0.207 µM | 0.546 µM
5 | CON(C)C(=O)C(C)NC(=O)OCc1ccccc1 (stereo not given) | > 100 µM | > 100 µM |  | > 100 µM | > 100 µM | > 100 µM | > 100 µM | > 100 µM | > 100 µM |  | > 100 µM |  |  |  |  |  |  |  |  | 
6 | COC(=O)c1ccc2c(c1)C(NC(C)=O)CCc1cc(OC)c(OC)c(OC)c1-2 (stereo not given) | > 100 µM | 93.3 µM | 77.4 µM | > 100 µM | 15.1 µM | 52.4 µM | > 81 µM | 78.3 µM | > 100 µM |  | 3.23 µM |  |  |  |  |  |  |  |  | 
7 | COC(=O)C1=C(OC(=O)c2ccc(Cl)cc2)C(C(=O)OC)[C@@]2(O)[C@@H](C(=O)OC)C(c3ccccc3C(F)(F)F)C[C@@H]1[C@@H]2C(=O)OC (stereo not given in full) | 3.65 µM | > 100 µM | 36.1 µM | > 100 µM |  | > 100 µM | 31.6 µM | 63.6 µM | 78.8 µM | 6.53 µM | 77.1 µM | 1.8 µM | 13.9 µM | 8.1 µM |  | 9.24 µM | 12.6 µM | 33 µM | 4.86 µM | 4.16 µM

— PubChem BioAssay (NCI)
